# The supplement of paper PMC11451515
# System: P12-Ichikawa
# Assay: cell viability relative to DMSO control; higher = less cytotoxic
# Conditions: 48 h
# Method in brief: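 In 1536-well plates, 5 μl of leukemia cells were seeded per well: 500 cells/well for NOMO1 or SEM and 1000 cells/well for P12-Ichikawa. Each line had first been adapted for at least four passages in each medium. Library compounds in DMSO were pin-dosed at 11 threefold concentrations between 47 μM and 0.79 nM, and CellTiter-Glo One luminescence was read after 48 h at 37°C. Viability is a per-plate percentage relative to DMSO wells, with cell-free wells as background.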
# [1] = HPLM + 10% dialyzed FBS, 0.000781 µM
# [2] = HPLM + 10% dialyzed FBS, 0.00234 µM
# [3] = HPLM + 10% dialyzed FBS, 0.00702 µM
# [4] = HPLM + 10% dialyzed FBS, 0.0211 µM
# [5] = HPLM + 10% dialyzed FBS, 0.0632 µM
# [6] = HPLM + 10% dialyzed FBS, 0.19 µM
# [7] = HPLM + 10% dialyzed FBS, 0.569 µM
# [8] = HPLM + 10% dialyzed FBS, 1.71 µM
# [9] = HPLM + 10% dialyzed FBS, 5.12 µM
# [10] = HPLM + 10% dialyzed FBS, 15.4 µM
# [11] = HPLM + 10% dialyzed FBS, 46.1 µM
# [12] = RPMI 5 mM glucose + 10% FBS, 0.000781 µM
# [13] = RPMI 5 mM glucose + 10% FBS, 0.00234 µM
# [14] = RPMI 5 mM glucose + 10% FBS, 0.00702 µM
# [15] = RPMI 5 mM glucose + 10% FBS, 0.0211 µM
# [16] = RPMI 5 mM glucose + 10% FBS, 0.0632 µM
# [17] = RPMI 5 mM glucose + 10% FBS, 0.19 µM
# [18] = RPMI 5 mM glucose + 10% FBS, 0.569 µM
# [19] = RPMI 5 mM glucose + 10% FBS, 1.71 µM
# [20] = RPMI 5 mM glucose + 10% FBS, 5.12 µM
# [21] = RPMI 5 mM glucose + 10% FBS, 15.4 µM
# [22] = RPMI 5 mM glucose + 10% FBS, 46.1 µM
# [23] = RPMI 5 mM glucose + 10% dialyzed FBS, 0.000781 µM
# [24] = RPMI 5 mM glucose + 10% dialyzed FBS, 0.00234 µM
# [25] = RPMI 5 mM glucose + 10% dialyzed FBS, 0.00702 µM
# [26] = RPMI 5 mM glucose + 10% dialyzed FBS, 0.0211 µM
# [27] = RPMI 5 mM glucose + 10% dialyzed FBS, 0.0632 µM
# [28] = RPMI 5 mM glucose + 10% dialyzed FBS, 0.19 µM
# [29] = RPMI 5 mM glucose + 10% dialyzed FBS, 0.569 µM
# [30] = RPMI 5 mM glucose + 10% dialyzed FBS, 1.71 µM
# [31] = RPMI 5 mM glucose + 10% dialyzed FBS, 5.12 µM
# [32] = RPMI 5 mM glucose + 10% dialyzed FBS, 15.4 µM
# [33] = RPMI 5 mM glucose + 10% dialyzed FBS, 46.1 µM
SMILES,cell viability [1] [%],cell viability [2] [%],cell viability [3] [%],cell viability [4] [%],cell viability [5] [%],cell viability [6] [%],cell viability [7] [%],cell viability [8] [%],cell viability [9] [%],cell viability [10] [%],cell viability [11] [%],cell viability [12] [%],cell viability [13] [%],cell viability [14] [%],cell viability [15] [%],cell viability [16] [%],cell viability [17] [%],cell viability [18] [%],cell viability [19] [%],cell viability [20] [%],cell viability [21] [%],cell viability [22] [%],cell viability [23] [%],cell viability [24] [%],cell viability [25] [%],cell viability [26] [%],cell viability [27] [%],cell viability [28] [%],cell viability [29] [%],cell viability [30] [%],cell viability [31] [%],cell viability [32] [%],cell viability [33] [%]
COc1c(N2C[C@@H]3CCCN[C@@H]3C2)c(F)cc2c(=O)c(C(=O)O)cn(C3CC3)c12.Cl.O,98.4,114,107,109,103,114,102,99.4,78.9,63,70.6,116,112,109,112,106,107,91.9,92.2,53.8,12.9,54,98.7,99.5,107,109,98.6,97,91,88.5,53.4,17.5,42.3
c1coc(CNc2ncnc3nc[nH]c23)c1,,,,,,,,,,,,,,,,,,,,,,,123,132,116,122,131,131,130,127,122,115,105
NCCOc1cc(C(=O)Nc2cc(OCCN)c3ccccc3n2)nc(C(=O)Nc2cc(OCCN)c3ccccc3n2)c1,44.2,13.1,12.7,12.8,14.1,12.8,13.3,9.79,7.51,21.5,61.7,113,120,113,19,17.4,17,15.7,16,16.7,24.4,68.8,,,,,,,,,,,
Cc1cc(/C=c2/sc3nc4ccccc4n3c2=O)c(C)n1-c1ccccc1,121,127,123,119,123,119,128,125,122,113,112,,,,,,,,,,,,110,126,116,132,126,121,124,124,105,112,120
O=C(O)c1cccc(-c2noc(-c3ccccc3F)n2)c1,99.7,106,104,100,102,105,102,98.6,101,100,95.3,96.5,98.2,97.5,106,106,106,101,98.7,90.9,93,92.7,102,105,94.9,103,103,97.1,95.1,102,90.6,102,98.7
Cc1nc(-c2ccc(-c3ccc(C(=O)N4CCc5cc6c(cc54)C4(CCN(C)CC4)CO6)cc3)c(C)c2)no1,106,114,111,116,122,111,121,123,119,119,120,107,112,106,116,117,114,123,115,121,124,118,107,107,113,116,110,121,120,116,115,121,126
CN(C[C@@H]1COCCO1)[S+]([O-])(=O)NC2=CC3=C(C=C2)\C=C/C4=C(C=C(C=N4)C5=C[N](C)N=C5)C3=O,93.4,99.6,94.1,101,93.7,90.1,71.8,67.4,54.7,49.8,52.4,95.6,92.7,103,95.2,102,96.1,76.6,53.5,48.8,42.2,50,94,97.1,88.7,91.2,105,88.9,75.3,53.6,43.3,37.6,41.5
OC(=O)CNC(=O)\C1=C(/O)C2=CC=CC=C2N(CC3=CC=CC=C3)C1=O,97.6,113,102,104,104,100,105,101,101,103,39.4,98.7,108,113,114,108,101,102,107,93,97.2,92.8,90.4,97.9,104,95.1,93.1,94.4,94,93.1,95.8,94.5,5.26
Cc1nc2ccc(CN(C)c3ccc(C(=O)N[C@@H](CCC(=O)O)C(=O)O)s3)cc2c(=O)[nH]1,119,119,118,118,120,56.7,42.2,26.5,24.9,25.9,21.4,112,117,126,115,113,97,66.2,42.6,38.2,35.1,31.7,106,116,105,119,108,88.9,60.8,32.4,28.5,27.8,26.9
C[C@H](NC(=O)[C@@H](O)c1cc(F)cc(F)c1)C(=O)N[C@@H]1C(=O)N(C)c2ccccc2-c2ccccc21,118,116,111,119,106,108,105,101,96.8,102,90.1,114,116,119,115,114,111,102,90.5,99.8,101,94.3,114,110,109,109,106,101,99.6,106,95.8,94.3,78.5
CC[C@H]1OC(=O)[C@H](C)[C@@H](O[C@H]2C[C@@](C)(OC)[C@@H](O)[C@H](C)O2)[C@H](C)[C@@H](O[C@@H]2O[C@H](C)C[C@H](N(C)C)[C@H]2O)[C@](C)(O)C[C@@H](C)/C(=N\OCOCCOC)[C@H](C)[C@@H](O)[C@]1(C)O,92.4,96.1,93.5,90.4,102,87.8,87.3,82.9,86.4,76.9,77.3,81.3,85,84.9,88.3,94.3,76.8,72.4,73.1,82.3,82.4,79.6,89.2,90.1,90.2,91.6,112,72,61.3,85.2,81.9,71.5,94.3
Cc1nnc(C(C)C)n1[C@@H]1C[C@H]2CC[C@@H](C1)N2CC[C@H](NC(=O)C1CCC(F)(F)CC1)c1ccccc1,88.3,99.8,107,111,105,102,113,110,101,89.1,63.8,85,90.2,94.3,100,95.9,103,107,99.4,104,92,59.2,71.4,96,89.1,101,94.5,105,97.4,103,101,81.1,48.3
Clc1ccc(CCC(Cn2ccnc2)Sc2c(Cl)cccc2Cl)cc1 (stereo not drawn),92.8,92.5,96,90.2,93.9,102,101,94.7,91.9,91.2,91.5,90,94.6,96,103,99.8,94.8,87.8,96,91.1,91.9,63.2,81.1,72.8,84.4,95.1,84.6,86.4,90.1,83.7,89.1,90.1,64.7
CCC[C@H](Nc1nc(-c2ccc(NC(=O)NCC)c(OC)c2)ncc1C)c1cccnc1,114,115,117,120,22.3,11.4,9.4,8.46,7.94,7.62,6.68,125,137,123,136,21.8,12.7,11.7,8.52,8.89,7.34,6.34,120,125,122,124,29.6,18.1,17.2,10.4,11,10.1,7.87
